For the experiment, the system named is Trichuris vulpis (whipworm). Put plainly: Efficacy against Trichuris vulpis (whipworm) in dogs (Example 14). The note with it: after 7 days; treated on Day 0; 0.5 mg/kg milbemycin oxime alone or with 2.5 mg/kg Compound A; naturally infected dogs.

In the case of milbemycin oxime, the “Efficacy against T. vulpis (parasite counts)” value is recorded as above 94%.
